In brackets after ≈: the same amount, converted by molar mass.
How the values were obtained:
[1] = Growth inhibition of HEK293 cells at 50 uM by MTT assay relative to control; format: cell-based; settings: human, read-out: GI
[2] = Growth inhibition of human PC3 cells at 50 uM by MTT assay relative to control; format: cell-based, PC-3; settings: read-out: GI
[3] = test system: Mycobacterium tuberculosis; assay: Antimycobacterial activity against Mycobacterium tuberculosis H37Rv after 14 days by broth dilution method; format: functional; settings: 336 h
[4] = Growth inhibition of HEK293 cells at 1 to 40 uM by MTT assay relative to control; format: cell-based; settings: human, read-out: GI
[5] = Growth inhibition of human PC3 cells at 1 to 40 uM by MTT assay relative to control; format: cell-based, PC-3; settings: read-out: GI
[6] = Growth inhibition of human MCF7 cells at 50 uM by MTT assay relative to control; format: cell-based; settings: read-out: GI
[7] = Growth inhibition of human HCT116 cells at 1 to 40 uM by MTT assay relative to control; format: cell-based, HCT-116; settings: read-out: GI
[8] = Growth inhibition of human MCF7 cells at 1 to 40 uM by MTT assay relative to control; format: cell-based; settings: read-out: GI
[9] = Growth inhibition of human HCT116 cells at 50 uM by MTT assay relative to control; format: cell-based, HCT-116; settings: read-out: GI
[10] = test system: Mycolicibacterium smegmatis; assay: Antimycobacterial activity against Mycobacterium smegmatis; format: functional
[11] = Selectivity ratio of MIC for Mycobacterium smegmatis to MIC for Mycobacterium tuberculosis; format: functional
[12] = test system: Mycobacterium tuberculosis; assay: Antimycobacterial activity against Mycobacterium tuberculosis; format: functional
Klebsiella pneumoniae = assay: Antibacterial activity against Klebsiella pneumoniae ATCC BAA-2146 after 24 hrs; format: functional; settings: ATCC BAA-2146, 24 h
Bacillus subtilis = assay: Antibacterial activity against Bacillus subtilis ATCC 11774 after 24 hrs; format: functional; settings: ATCC 11774, 24 h
Staphylococcus aureus = assay: Antibacterial activity against Staphylococcus aureus ATCC 25923 after 24 hrs; format: functional; settings: ATCC 25923, 24 h
Pseudomonas aeruginosa = assay: Antibacterial activity against Pseudomonas aeruginosa ATCC 10145 after 24 hrs; format: functional; settings: ATCC 10145, 24 h
HEK293 = assay: Growth inhibition of HEK293 cells up to 80 uM by MTT assay relative to control; format: cell-based; settings: human
Micrococcus luteus = assay: Antibacterial activity against Micrococcus luteus ATCC 10240 after 24 hrs; format: functional; settings: ATCC 10240, 24 h
[13] = test system: Staphylococcus epidermidis; assay: Antibacterial activity against Staphylococcus epidermidis ATCC 12228 after 24 hrs; format: functional; settings: ATCC 12228, 24 h
Escherichia coli = assay: Antibacterial activity against Escherichia coli 10536 after 24 hrs; format: functional; settings: Escherichia coli, 10536, 24 h
Enterococcus faecalis = assay: Antibacterial activity against Enterococcus faecalis ATCC 51299 after 24 hrs; format: functional; settings: ATCC 51299, 24 h
[14] = test system: Mycolicibacterium smegmatis; assay: Antimycobacterial activity against Mycobacterium smegmatis ATCC 607 after 24 hrs; format: functional; settings: ATCC 607, 24 h

O=C1CC(c2ccccc2)CC(=O)C1=CNc1ccccc1O (stereo not drawn)
inhibition at 50 µM [1]: 52.8% | inhibition at 50 µM [2]: 20.4% | MIC [3]: 5 to 10 µg/mL (≈ 16.3 to 32.5 µM) | inhibition at up to 40 µM [4]: < 20% | inhibition at up to 40 µM [5]: < 20% | inhibition at 50 µM [6]: 16.5% | inhibition at up to 40 µM [7]: < 20% | inhibition at up to 40 µM [8]: < 20%

CC1(C)CC(=O)C(=CNc2ccc(F)cc2F)C(=O)C1
MIC [3]: > 80 µg/mL

CC1(C)CC(=O)C(=CSc2ccccc2O)C(=O)C1
MIC [3]: 40 to 80 µg/mL (≈ 145 to 289 µM)

O=C1CCC(=O)C1=CNc1ccc([N+](=O)[O-])cc1Cl
MIC [3]: > 80 µg/mL

CC[C@@H](CO)NCCN[C@@H](CC)CO [ETHAMBUTOL]
MIC [3]: 1.25 µg/mL (≈ 6.12 µM)

CN[C@@H]1[C@H](O[C@H]2[C@H](O[C@H]3[C@H](O)[C@@H](O)[C@H](N=C(N)N)[C@@H](O)[C@@H]3N=C(N)N)O[C@@H](C)[C@]2(O)C=O)O[C@@H](CO)[C@H](O)[C@H]1O [STREPTOMYCIN]
MIC [3]: 1.56 µg/mL (≈ 2.68 µM)

O=C1CC(c2ccc(Cl)cc2)CC(=O)C1=CNc1ccccc1O (stereo not drawn)
inhibition at 50 µM [1]: 44% | inhibition at 50 µM [2]: 18.6% | MIC [3]: 20 µg/mL (≈ 58.5 µM) | inhibition at 50 µM [9]: 28.6% | inhibition at up to 40 µM [4]: < 20% | inhibition at up to 40 µM [5]: < 20% | inhibition at 50 µM [6]: 23.4% | inhibition at up to 40 µM [7]: < 20% | inhibition at up to 40 µM [8]: < 20%

CCCCCNC=C1C(=O)CC(C)(C)CC1=O
MIC [3]: > 80 µg/mL

CC1(C)CC(=O)C(=CNc2ccccc2C(F)(F)F)C(=O)C1
MIC [3]: > 80 µg/mL

O=C1CCCC(=O)C1=CNc1ccccc1O
inhibition at 50 µM [1]: 28.3% | inhibition at 50 µM [2]: 29.5% | MIC [3]: 5 to 10 µg/mL (≈ 21.6 to 43.2 µM) | inhibition at 50 µM [9]: 10.6% | inhibition at up to 40 µM [4]: < 20% | inhibition at up to 40 µM [5]: < 20% | inhibition at 50 µM [6]: 14.5% | inhibition at up to 40 µM [7]: < 20% | inhibition at up to 40 µM [8]: < 20%

CC1(C)CC(=O)C(=CNc2ccc(Cl)cc2)C(=O)C1
MIC [3]: > 80 µg/mL

CCCN(C=C1C(=O)CC(C)(C)CC1=O)CCC
MIC [3]: > 80 µg/mL

O=C1CC(c2ccco2)CC(=O)C1=CNc1ccccc1O (stereo not drawn)
inhibition at 50 µM [1]: 46.4% | inhibition at 50 µM [2]: 26.1% | MIC [3]: 10 to 20 µg/mL (≈ 33.6 to 67.3 µM) | inhibition at 50 µM [9]: 42.8% | inhibition at up to 40 µM [4]: < 20% | inhibition at up to 40 µM [5]: < 20% | inhibition at 50 µM [6]: 2.92% | inhibition at up to 40 µM [7]: < 20% | inhibition at up to 40 µM [8]: < 20%

CC1(C)CC(=O)C(=CNc2ccccc2[N+](=O)[O-])C(=O)C1
MIC [3]: > 80 µg/mL

CO[C@H]1/C=C/O[C@@]2(C)Oc3c(C)c(O)c4c(O)c(c(/C=N/N5CCN(C)CC5)c(O)c4c3C2=O)NC(=O)/C(C)=C\C=C\[C@H](C)[C@H](O)[C@@H](C)[C@@H](O)[C@@H](C)[C@H](OC(C)=O)[C@@H]1C [RIFAMPIN]
MIC [3]: 0.078 µg/mL (≈ 0.0948 µM) | MIC [10]: 100 µg/mL (≈ 122 µM) | Selectivity ratio [11]: 500 to 1000 | MIC [12]: 0.2 µg/mL (≈ 0.243 µM)

O=C1CCC(=O)C1=CNc1ccc([N+](=O)[O-])cc1F
MIC [3]: > 80 µg/mL

Cc1ccc(NC=C2C(=O)CC(C)(C)CC2=O)cc1C
MIC [3]: > 80 µg/mL

NNC(=O)c1ccncc1 [ISONIAZID]
MIC [3]: 0.313 µg/mL (≈ 2.28 µM) | MIC [10]: 25 µg/mL (≈ 182 µM) | Selectivity ratio [11]: 500 to 1000 | MIC [12]: 0.02 µg/mL (≈ 0.146 µM)

CC1CC(=O)C(=CNc2ccccc2O)C(=O)C1 (stereo not drawn)
inhibition at 50 µM [1]: 6.08% | inhibition at 50 µM [2]: 8.2% | MIC [3]: 20 µg/mL (≈ 81.5 µM) | inhibition at 50 µM [9]: 35.7% | inhibition at up to 40 µM [4]: < 20% | inhibition at up to 40 µM [5]: < 20% | inhibition at 50 µM [6]: 16.6% | inhibition at up to 40 µM [7]: < 20% | inhibition at up to 40 µM [8]: < 20%

CCCCNC=C1C(=O)CC(C)(C)CC1=O
MIC [3]: > 80 µg/mL

CC1(C)CC(=O)C(=CNc2ccc(Br)cc2)C(=O)C1
MIC [3]: > 80 µg/mL

CC1(C)CC(=O)C(=CNCc2ccc(F)cc2)C(=O)C1
MIC [3]: > 80 µg/mL

O=C1CCCC(=O)C1=CSc1ccccc1O
MIC [3]: 40 to 80 µg/mL (≈ 161 to 322 µM)

CC1(C)CC(=O)C(=CNc2ccc([N+](=O)[O-])cc2Cl)C(=O)C1
MIC [3]: > 80 µg/mL

CC1(C)CCC(=O)C(=CNc2ccccc2O)C1=O (mixture of isomers)
inhibition at 50 µM [1]: 64.1% | inhibition at 50 µM [2]: 41.2% | MIC [3]: 10 to 20 µg/mL | inhibition at 50 µM [9]: 60.7% | inhibition at up to 40 µM [4]: < 20% | inhibition at up to 40 µM [5]: < 20% | inhibition at up to 40 µM [7]: < 20% | inhibition at up to 40 µM [8]: < 20%

CC1(C)CC(=O)C(=CNc2cccc(C(F)(F)F)c2)C(=O)C1
MIC [3]: > 80 µg/mL

CC1(C)CC(=O)C(=CNc2cccc([N+](=O)[O-])c2)C(=O)C1
MIC [3]: > 80 µg/mL

CNC=C1C(=O)CC(C)(C)CC1=O
MIC [3]: > 80 µg/mL

CC1(C)CC(=O)C(=CNc2ccc([N+](=O)[O-])cc2F)C(=O)C1
MIC [3]: 80 µg/mL (≈ 261 µM)

CCCNC=C1C(=O)CC(C)(C)CC1=O
MIC [3]: > 80 µg/mL

CC1(C)CC(=O)C(=CNc2ccccc2)C(=O)C1
MIC [3]: > 80 µg/mL

CC1(C)CC(=O)C(=CNc2ccccc2O)C(=O)C1
MIC (Klebsiella pneumoniae): > 128 µg/mL | MIC (Bacillus subtilis): > 128 µg/mL | MIC (Staphylococcus aureus): > 128 µg/mL | MIC (Pseudomonas aeruginosa): > 128 µg/mL | inhibition at 50 µM [1]: 9.03% | growth inhibition (GI) (HEK293): < 20% | inhibition at 50 µM [2]: 10.1% | MIC [3]: 2.5 µg/mL (≈ 9.64 µM) | MIC (Micrococcus luteus): 128 µg/mL (≈ 494 µM) | inhibition at 50 µM [9]: 20.2% | inhibition at up to 40 µM [4]: < 20% | MIC [13]: > 128 µg/mL | inhibition at up to 40 µM [5]: < 20% | inhibition at 50 µM [6]: 15.1% | inhibition at up to 40 µM [7]: < 20% | MIC (Escherichia coli): 32 to 64 µg/mL (≈ 123 to 247 µM) | MIC (Enterococcus faecalis): > 128 µg/mL | inhibition at up to 40 µM [8]: < 20% | MIC [14]: > 80 µg/mL

Cc1ccc(NC=C2C(=O)CC(C)(C)CC2=O)c(C)c1C
MIC [3]: > 80 µg/mL

O=C1CCCC(=O)C1=CNc1ccc([N+](=O)[O-])cc1F
MIC [3]: 80 µg/mL (≈ 288 µM)

CC1(C)CC(=O)C(=CNc2cccc3ccccc23)C(=O)C1
MIC [3]: > 80 µg/mL

CC1(C)CC(=O)C(=CNc2cccc(Br)c2)C(=O)C1
MIC [3]: > 80 µg/mL

O=C1CCC(=O)C1=CNc1ccccc1O
MIC [3]: > 80 µg/mL

O=C1CCCC(=O)C1=CNc1ccc([N+](=O)[O-])cc1Cl
MIC [3]: 40 to 80 µg/mL (≈ 136 to 271 µM)

CC1(C)CC(=O)C(=CNc2ccc([N+](=O)[O-])cc2)C(=O)C1
MIC [3]: > 80 µg/mL

C[C@H]1COc2c(N3CCN(C)CC3)c(F)cc3c(=O)c(C(=O)O)cn1c23.C[C@H]1COc2c(N3CCN(C)CC3)c(F)cc3c(=O)c(C(=O)O)cn1c23.O [LEVOFLOXACIN]
MIC (Klebsiella pneumoniae): 0.625 to 1.25 µg/mL | MIC (Bacillus subtilis): 0.39 µg/mL | MIC (Staphylococcus aureus): 0.078 to 0.156 µg/mL | MIC (Pseudomonas aeruginosa): 0.312 to 0.625 µg/mL | MIC [3]: 2.5 µg/mL | MIC (Micrococcus luteus): 0.078 µg/mL | MIC [13]: 0.039 to 0.078 µg/mL | MIC (Escherichia coli): 0.078 µg/mL | MIC (Enterococcus faecalis): 0.156 µg/mL | MIC [14]: 0.156 µg/mL

Cc1ccc(NC=C2C(=O)CC(C)(C)CC2=O)c(C)c1
MIC [3]: > 80 µg/mL

CC1(C)CC(=O)C(=CNc2cc(Cl)c(Cl)cc2Cl)C(=O)C1
MIC [3]: > 80 µg/mL

CC1(C)CC(=O)C(=CNc2ccc([N+](=O)[O-])cc2[N+](=O)[O-])C(=O)C1
MIC [3]: > 80 µg/mL

CC1(C)CC(=O)C(=CNc2ccccc2Br)C(=O)C1
MIC [3]: > 80 µg/mL

From ChEMBL document CHEMBL4257450, “The synthesis, biological evaluation and structure-activity relationship of 2-phenylaminomethylene-cyclohexane-1,3-diones as specific anti-tuberculosis agents” (Medchemcomm, 2017)
